Measured values reported in ChEMBL document CHEMBL3612037, “Design and synthesis of some new pyrazolyl-pyrazolines as potential anti-inflammatory, analgesic and antibacterial agents” (Eur J Med Chem, 2015).
In brackets after ≈: the same amount, converted by molar mass. Activity calls are given as the source filed them. The rule behind the calls is not given here.

Assays:
[1] = test system: Escherichia coli; experiment: Antimicrobial activity against Escherichia coli by agar dilution method; format: functional
[2] = test system: Rattus norvegicus; experiment: Anti-inflammatory activity in Wistar rat assessed as inhibition of carrageenan-induced paw oedema at 50 mg/kg, po dosed 30 mins before carrageenan challenge and measured 30 mins post carrageenan challenge; format: functional
[3] = test system: Staphylococcus aureus; experiment: Antimicrobial activity against Staphylococcus aureus at 20 uL of 1 mg/ml by disc diffusion assay; format: functional; settings: read-out: IZ
[4] = test system: Aeromonas hydrophila; experiment: Antimicrobial activity against Aeromonas hydrophila at 20 uL of 1 mg/ml by disc diffusion assay; format: functional; settings: for zone of inhibition at 1000 µg/mL: read-out: IZ
[5] = test system: Rattus norvegicus; experiment: Analgesic activity in Wistar rat assessed as tail flick latency time at 50 mg/kg, po measured 90 mins post dose by tail flick method (reference value: 3.7 +/- 0.1 secs); format: functional
[6] = test system: Staphylococcus; experiment: Antimicrobial activity against Staphylococcus citreus at 20 uL of 1 mg/ml by disc diffusion assay; format: functional; settings: read-out: IZ
[7] = test system: Rattus norvegicus; experiment: Anti-inflammatory activity in Wistar rat assessed as inhibition of carrageenan-induced paw oedema at 50 mg/kg, po dosed 30 mins before carrageenan challenge and measured 60 mins post carrageenan challenge; format: functional
[8] = test system: Mus musculus; experiment: Acute toxicity in Swiss mouse assessed as induction of depression incidence at 100 to 1000 mg/kg, po measured 48 hrs post dose; format: organism-based; settings: in vivo
[9] = test system: Escherichia coli; experiment: Antimicrobial activity against Escherichia coli at 20 uL of 1 mg/ml by disc diffusion assay; format: functional; settings: for zone of inhibition at 1000 µg/mL: read-out: IZ
[10] = test system: Rattus norvegicus; experiment: Analgesic activity in Wistar rat assessed as tail flick latency time at 50 mg/kg, po measured 0 mins post dose by tail flick method (reference value: 3.5 +/- 0.8 secs); format: functional
[11] = test system: Mus musculus; experiment: Acute toxicity in Swiss mouse assessed as induction of diarrhoea incidence at 100 to 1000 mg/kg, po measured 48 hrs post dose; format: organism-based; settings: in vivo
[12] = test system: Rattus norvegicus; experiment: Analgesic activity in Wistar rat assessed as tail flick latency time at 50 mg/kg, po measured 30 mins post dose by tail flick method (reference value: 3.46 +/- 0.1 secs); format: functional
[13] = test system: Rattus norvegicus; experiment: Analgesic activity in Wistar rat assessed as tail flick latency time at 50 mg/kg, po measured 60 mins post dose by tail flick method (reference value: 3.47 +/- 0.1 secs); format: functional
[14] = Acute toxicity in Swiss mouse at 100 to 1000 mg/kg, po measured 48 hrs post dose; format: organism-based; settings: in vivo
[15] = test system: Rattus norvegicus; experiment: Anti-inflammatory activity in Wistar rat assessed as inhibition of carrageenan-induced paw oedema at 50 mg/kg, po dosed 30 mins before carrageenan challenge and measured 120 mins post carrageenan challenge; format: functional
[16] = test system: Staphylococcus; experiment: Antimicrobial activity against Staphylococcus citreus by agar dilution method; format: functional
[17] = test system: Aeromonas hydrophila; experiment: Antimicrobial activity against Aeromonas hydrophila by agar dilution method; format: functional
[18] = test system: Staphylococcus aureus; experiment: Antimicrobial activity against Staphylococcus aureus by agar dilution method; format: functional
[19] = test system: Rattus norvegicus; experiment: Analgesic activity in Wistar rat assessed as tail flick latency time at 20 mg/kg, po measured 60 mins post dose by tail flick method (reference value: 3.47 +/- 0.1 secs); format: functional
[20] = test system: Rattus norvegicus; experiment: Analgesic activity in Wistar rat assessed as tail flick latency time at 20 mg/kg, po measured 30 mins post dose by tail flick method (reference value: 3.46 +/- 0.1 secs); format: functional
[21] = test system: Rattus norvegicus; experiment: Analgesic activity in Wistar rat assessed as tail flick latency time at 20 mg/kg, po measured 90 mins post dose by tail flick method (reference value: 3.7 +/- 0.1 secs); format: functional
[22] = test system: Rattus norvegicus; experiment: Analgesic activity in Wistar rat assessed as tail flick latency time at 20 mg/kg, po measured 0 mins post dose by tail flick method (reference value: 3.5 +/- 0.8 secs); format: functional
[23] = test system: Rattus norvegicus; experiment: Anti-inflammatory activity in Wistar rat assessed as inhibition of carrageenan-induced paw oedema at 20 mg/kg, po dosed 30 mins before carrageenan challenge and measured 120 mins post carrageenan challenge; format: functional
[24] = test system: Rattus norvegicus; experiment: Anti-inflammatory activity in Wistar rat assessed as inhibition of carrageenan-induced paw oedema at 20 mg/kg, po dosed 30 mins before carrageenan challenge and measured 30 mins post carrageenan challenge; format: functional
[25] = test system: Rattus norvegicus; experiment: Anti-inflammatory activity in Wistar rat assessed as inhibition of carrageenan-induced paw oedema at 20 mg/kg, po dosed 30 mins before carrageenan challenge and measured 60 mins post carrageenan challenge; format: functional

| Structure (SMILES) | MIC [1] | inhibition in vivo at 50 mg/kg [2] | zone of inhibition at 1000 µg/mL [3] | zone of inhibition at 1000 µg/mL [4] | Time [5] | zone of inhibition at 1000 µg/mL [6] | inhibition in vivo at 50 mg/kg [7] | Activity [8] | zone of inhibition at 1000 µg/mL [9] | Time [10] | Activity [11] | Time [12] | Time [13] | LD50 at 48 h [14] | inhibition in vivo at 50 mg/kg [15] | MIC [16] | MIC [17] | MIC [18] | also measured |
| --- | --- | --- | --- | --- | --- | --- | --- | --- | --- | --- | --- | --- | --- | --- | --- | --- | --- | --- | --- |
| Clc1ccc(C2=NNC(c3cn(-c4ccccc4)nc3-c3ccc(Cl)c(Cl)c3)C2)cc1 (stereo unspecified) | 200 mg/L (≈ 428 µM) | 33% | 21 mm | 15 mm | 4.6 s | 18 mm | 45.8% | Non-toxic | 34 mm | 3.6 s | Non-toxic | 5.4 s | 5.7 s | 500 mg/kg | 48.4% |  |  |  |  |
| CN(C)[C@@H]1C(O)=C(C(N)=O)C(=O)[C@@]2(O)C(O)=C3C(=O)c4c(O)cccc4[C@@](C)(O)[C@H]3C[C@@H]12 [TETRACYCLINE] | 400 mg/L (≈ 900 µM) |  |  |  |  |  |  |  |  |  |  |  |  |  |  | 300 mg/L (≈ 675 µM) | 400 mg/L (≈ 900 µM) | 300 mg/L (≈ 675 µM) |  |
| Fc1ccc(C2=NN(c3ccccc3)C(c3cn(-c4ccccc4)nc3-c3ccc(Cl)c(Cl)c3)C2)cc1 (stereo unspecified) |  | 44.7% | 31 mm |  | 4.8 s | 37 mm | 55.7% | Non-toxic | 21 mm | 3.1 s | Non-toxic | 4.6 s | 5.2 s | 500 mg/kg | 60.1% | 200 mg/L (≈ 379 µM) |  | 300 mg/L (≈ 569 µM) | inhibition zone (IZ) [4]: inactive |
| CCC(=O)N1N=C(c2ccc(Cl)cc2)CC1c1cn(-c2ccccc2)nc1-c1ccc(Cl)c(Cl)c1 (stereo unspecified) |  | 47.9% | 30 mm | 23 mm | 5.4 s | 18 mm | 61.1% | Non-toxic | 19 mm | 3.3 s | Non-toxic | 6.1 s | 6.8 s | 500 mg/kg | 68.8% |  |  | 300 mg/L (≈ 573 µM) |  |
| CC(C)=CCN1CC[C@]2(C)c3cc(O)ccc3C[C@H]1[C@H]2C [(+)-PENTAZOCINE] |  |  |  |  |  |  |  |  |  |  |  |  |  |  |  |  |  |  | Time [19]: 7.7 s; Time [20]: 7.4 s; Time [21]: 7.9 s; Time [22]: 3.6 s |
| CN[C@H](CC(C)C)C(=O)N[C@H]1C(=O)N[C@@H](CC(N)=O)C(=O)N[C@H]2C(=O)N[C@H]3C(=O)N[C@H](C(=O)N[C@H](C(=O)O)c4cc(O)cc(O)c4-c4cc3ccc4O)[C@H](O)c3ccc(c(Cl)c3)Oc3cc2cc(c3O[C@@H]2O[C@H](CO)[C@@H](O)[C@H](O)[C@H]2O[C@H]2C[C@](C)(N)[C@H](O)[C@H](C)O2)Oc2ccc(cc2Cl)[C@H]1O [VANCOMYCIN] |  |  |  |  |  |  |  |  |  |  |  |  |  |  |  | 500 mg/L (≈ 345 µM) |  | 500 mg/L (≈ 345 µM) |  |
| Clc1ccc(C2=NN(c3ccccc3)C(c3cn(-c4ccccc4)nc3-c3ccc(Cl)c(Cl)c3)C2)cc1 (stereo unspecified) |  | 45.7% | 15 mm | 28 mm | 4.9 s | 19 mm | 53.4% | Non-toxic |  | 4.3 s | Non-toxic | 6.1 s | 6.1 s | 500 mg/kg | 61.7% |  | 400 mg/L (≈ 735 µM) |  | inhibition zone (IZ) [9]: inactive |
| CCC(=O)N1N=C(c2ccc(F)cc2)CC1c1cn(-c2ccccc2)nc1-c1ccc(Cl)c(Cl)c1 (stereo unspecified) |  | 51.1% | 23 mm | 28 mm | 7.2 s | 15 mm | 63.4% | Non-toxic | 21 mm | 3.4 s | Non-toxic | 7.9 s | 7.7 s | 500 mg/kg | 75.6% |  | 400 mg/L (≈ 788 µM) |  |  |
| CO/N=C(\C(=O)N[C@@H]1C(=O)N2C(C(=O)O)=C(COC(N)=O)CS[C@H]12)c1ccco1 [CEFUROXIME] | 500 mg/L (≈ 1180 µM) |  |  |  |  |  |  |  |  |  |  |  |  |  |  | 600 mg/L (≈ 1410 µM) | 500 mg/L (≈ 1180 µM) |  |  |
| O=C(O)Cc1ccccc1Nc1c(Cl)cccc1Cl [DICLOFENAC SODIUM] |  |  |  |  |  |  |  |  |  |  |  |  |  |  |  |  |  |  | inhibition in vivo at 20 mg/kg [23]: 76.6%; inhibition in vivo at 20 mg/kg [24]: 46.8%; inhibition in vivo at 20 mg/kg [25]: 71% |
| CC1(C)S[C@@H]2[C@H](NC(=O)[C@H](N)c3ccccc3)C(=O)N2[C@H]1C(=O)O [AMPICILLIN] | 100 mg/L (≈ 286 µM) |  |  |  |  |  |  |  |  |  |  |  |  |  |  | 200 mg/L (≈ 572 µM) | 200 mg/L (≈ 572 µM) | 300 mg/L (≈ 859 µM) |  |
